# Results: patent US10351575B2, “Bicyclic urea, thiourea, guanidine and cyanoguanidine compounds useful for the treatment of pain” (Array BioPharma Inc., priority 2012, dated 2019)
# Molecular target: His-tagged recombinant human TrkA (Homo sapiens (Human), UniProt P04629)
# Assay: TrkA LanthaScreen Eu Kinase Binding Assay
# Settings: averaged IC50; TR-FRET binding, 60 min, 22° C.; read-out: TrkA Enzyme IC50
# Outline: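 Three-fold compound dilutions (2% DMSO final) were incubated 60 min at 22° C. with 5 nM His-TrkA cytoplasmic domain, tracer 236 (4 nM), biotinylated anti-His (2 nM) and europium streptavidin (2 nM) in MOPS pH 7.5 buffer. Emission ratio 665/615 gave percent of control; four-parameter fit yielded IC50.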
# His-tagged recombinant human TrkA, sequence (P04629 440-796): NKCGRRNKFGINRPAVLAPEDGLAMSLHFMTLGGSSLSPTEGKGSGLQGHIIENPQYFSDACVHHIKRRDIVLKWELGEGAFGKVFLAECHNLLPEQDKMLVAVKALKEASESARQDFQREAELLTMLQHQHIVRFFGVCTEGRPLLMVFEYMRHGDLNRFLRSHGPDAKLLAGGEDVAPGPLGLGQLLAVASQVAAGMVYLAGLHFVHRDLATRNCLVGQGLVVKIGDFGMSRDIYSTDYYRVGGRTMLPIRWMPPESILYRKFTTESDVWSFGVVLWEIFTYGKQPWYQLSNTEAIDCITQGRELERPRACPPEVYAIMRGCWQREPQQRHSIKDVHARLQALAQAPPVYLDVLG
row,SMILES,IC50
1,"Cc1c(OC[C@H]2CN(C(C)C)CCO2)nn(-c2ccccc2)c1NC(=O)N[C@@H]1c2ccccc2C(C)(C)C[C@H]1O [Example 151, 1-((1R,2R)-2-hydroxy-4,4-dimethyl-1,2,3,4-tetrahydronaphthalen-1-yl)-3-(3-(((R)-4-isopropylmorpholin-2-yl)methoxy)-4-methyl-1-phenyl-1H-pyrazol-5-yl)urea]",< 100 nM
2,"Cc1c(-c2cnn(C)c2)nn(-c2ccccc2)c1NC(=O)NC1CC(C)(C)Oc2ccccc21 (centres unmarked) [Example 9, 1-(1′,4-dimethyl-1-phenyl-1H,1′H-3,4′-bipyrazol-5-yl)-3-(2,2-dimethylchroman-4-yl)urea]",100 to 1000 nM
3,"CO[C@H]1[C@@H](O)[C@H](NC(=O)Nc2c(C)c(OCC3CCN(C)CC3)nn2-c2ccccc2)c2ccccc2C1(C)C [Example 87, 1-((r-1,t-2,t-3)-2-hydroxy-3-methoxy-4,4-dimethyl-1,2,3,4-tetrahydronaphthalen-1-yl)-3-(4-methyl-3-((1-methylpiperidin-4-yl)methoxy)-1-phenyl-1H-pyrazol-5-yl)urea]",< 100 nM
4,"COc1nn(-c2ccccc2)c(NC(=O)N[C@@H]2c3ccccc3C(C)(C)[C@@H](OC)[C@H]2O)c1C [Example 153, 1-((r-1,t-2,t-3)-2-hydroxy-3-methoxy-4,4-dimethyl 1,2,3,4-tetrahydronaphthalen-1-yl)-3-(3-methoxy-4-methyl-1-phenyl-1H-pyrazol-5-yl)urea]",< 100 nM
5,"Cc1c(-c2cnn(C)c2)nn(-c2ccccc2)c1NC(=O)NC1CC2(CCC2)Oc2ccccc21 (centres unmarked) [Example 35B, 1-(1′,4-dimethyl-1-phenyl-1H,1′H-[3,4′-bipyrazol]-5-yl)-3-(spiro[chroman-2,1′-cyclobutan]-4-yl)urea]",100 to 1000 nM
6,"COc1ncc(-c2nn(-c3ccccc3)c(NC(=O)N[C@@H]3c4ccccc4C[C@H]3O)c2C)cn1 [Example 68, 1-((1R,2R)-2-hydroxy-2,3-dihydro-1H-inden-1-yl)-3-(3-(2-methoxypyrimidin-5-yl)-4-methyl-1-phenyl-1H-pyrazol-5-yl)urea]",< 100 nM
7,"Cc1c(CCO)nn(-c2ccccc2)c1NC(=O)N[C@@H]1c2ccccc2C(C)(C)C[C@H]1O [Example 148, 1-((1R,2R)-2-hydroxy-4,4-dimethyl-1,2,3,4-tetrahydronaphthalen-1-yl)-3-(3-(2-hydroxyethyl)-4-methyl-1-phenyl-1H-pyrazol-5-yl)urea]",< 100 nM
8,"CO[C@H]1[C@@H](O)[C@H](NC(=O)Nc2c(C)c(-c3ccc(=O)n(C)c3)nn2-c2ccccc2)c2ccccc2C1(C)C [Example 154, 1-((r-1,t-2,t-3)-2-hydroxy-3-methoxy-4,4-dimethyl-1,2,3,4-tetrahydronaphthalen-1-yl)-3-(4-methyl-3-(1-methyl-6-oxo-1,6-dihydropyridin-3-yl)-1-phenyl-1H-pyrazol-5-yl)urea]",< 100 nM
9,"Cc1ncc(-c2nn(-c3ccccc3)c(NC(=O)N[C@@H]3c4cc(F)c(F)cc4C(C)(C)C[C@H]3O)c2C)cn1 [Example 84, 1-((1,2-trans)-6,7-difluoro-2-hydroxy-4,4-dimethyl-1,2,3,4-tetrahydronaphthalen-1-yl)-3-(4-methyl-3-(2-methylpyrimidin-5-yl)-1-phenyl-1H-pyrazol-5-yl)urea]",< 100 nM
10,"CNC(=O)c1nn(-c2ccccc2)c(NC(=O)N[C@@H]2c3cc(COC)ccc3C(C)(C)C[C@H]2O)c1C (relative stereo) [Example 120, 5-(3-(trans-2-hydroxy-7-(methoxymethyl)-4,4-dimethyl-1,2,3,4-tetrahydronaphthalen-1-yl)ureido)-N,4-dimethyl-1-phenyl-1H-pyrazole-3-carboxamide]",< 100 nM
11,"Cc1nn(-c2ccccc2)c(NC(=O)NC2CN(CC(F)(F)F)C(=O)c3ccccc32)c1C (centres unmarked) [Example 131, 1-(3,4-dimethyl-1-phenyl-1H-pyrazol-5-yl)-3-(1-oxo-2-(2,2,2-trifluoroethyl)-1,2,3,4-tetrahydroisoquinolin-4-yl)urea]",< 100 nM
